The text below walks through data of US11166948B2, “Pharmaceutical composition for treatment of aortic aneurysm” (National University Corporation Hamamatsu University School …, priority 2017, dated 2021).

SMILES strings stand for the structures.

The test system of test [1] is elastase-induced model rats. Conditions: preventive administration before AAA formation; cited from earlier work.
The subject of test [2] is aortic wall hypoxia-induced rat AAA model. Briefly: Action of Compound 1 in aortic wall hypoxia-induced rat AAA model. It counts as in vivo. Conditions: vs control group; for mortality due to rupture (non-rupture survival rate): day of operation to Day 28 post operation. An excerpt:
The action of Compound 1 in a rat AAA model (Non-Patent Document 3) induced by operation in which the aortic wall was separated from the surrounding tissue, a catheter was inserted, and then the abdominal aorta was ligated together with a catheter with a thread was studied.
In this test, Compound 1 was manufactured according to the method described in Patent Document 1, and mixed, in a proportion of 0.15%, with a normal diet (FR2, manufactured by Funabashi Farm Co., Ltd.), and the Compound 1-mixed diet was used.
Sprague-Dawley male rats (300 to 350 g: Japan SLC, Inc.) were used in the experiment. The rats were reared at room temperature of 25° C. ±1° C., and allowed to freely take the feed and water.
The model was created according to the method described in Non-Patent Document 3. Specifically, a rat AAA model was created by separating the rat aortic wall from the surrounding tissue, inserting a polyurethane catheter, and then ligating the abdominal aorta together with a plastic catheter with a monofilament thread, and inducing AAA.
The rat models were divided into two groups: a normal diet administration group (hereinafter referred to as “control group”) (n=20) and a 0.15% Compound 1-mixed diet administration group (hereinafter referred to as “Compound 1 group”) (n=20). The normal diet or Compound 1-mixed diet was freely fed in a period from one week before the AAA model creation operation (7 days before operation) to the end of the experiment.
In both the groups, up to 28 days post operation, the aneurysm diameter was measured by echo and comparison in survival was made.
In addition, the surviving animals were sacrificed after 28 days to analyze the AAA pathological tissue.
The AAA maximum short-axis diameter was measured with an ultrasonic diagnostic apparatus (Vevo770, manufactured by VisualSonics Inc.) on the day of operation and Day 7, Day 14, Day 21 and Day 28 post operation.
In the same models as in Example 1, the effect of Compound 1 on the formed AAA was studied.
Specifically, the administration of the Compound 1-mixed diet was started one week after the AAA model creation operation (7 days after operation) until the end of the experiment in this example, in place of one week before the AAA model creation operation (7 days before operation) until the end of the experiment in Example 1 (3). In addition, on Day 7 post operation, rats having an aortic aneurysm diameter of 3 mm or more were selected by measurement with an ultrasonic diagnostic apparatus (Vevo770, manufactured by VisualSonics Inc.), and then the rats were randomly divided into two groups: a normal diet administration group (hereinafter referred to as “control group”) (n=18) and a 0.15% Compound 1-mixed diet administration group (hereinafter referred to as “Compound 1 group”) (n=15). […]

For `O=C1CCc2cc(OCCCCc3nnnn3C3CCCCC3)ccc2N1` [cilostazol], the AAA dilatation entry in test [1] is given as “suppresses AAA dilatation”.
Turning to `O=C(NCCCOc1ccc2[nH]c(=O)ccc2c1)N(C1CC1)[C@@H]1CCCC[C@H]1O` [Compound 1, (−)-6-[3-[3-cyclopropyl-3-[(1R,2R)-2-hydroxycyclohexyl]ureido]propoxy]-2(1H)-quinolinone], the “aneurysm diameter (AAA maximum short-axis diameter)” value in test [2] (Example 1: 0.15% Compound 1-mixed diet from 7 days before operation to end of experiment, echo up to Day 28 post operation, no significant difference) is recorded as “tendency toward suppression of the increase in the aneurysm diameter”; in test [2] (Example 2: 0.15% Compound 1-mixed diet from 7 days after operation (formed AAA, diameter 3 mm or more), Day 7 to Day 14 post operation, p=0.014), “significantly lower”. Further, the “mortality due to rupture (non-rupture survival rate)” value in test [2] (Example 1: 0.15% Compound 1-mixed diet from 7 days before operation, Log Rank p=0.036) is “significantly lower”; in test [2] (Example 2: 0.15% Compound 1-mixed diet from 7 days after operation (formed AAA), Log Rank p=0.055) it was “lower”.
